Structures are written as SMILES.

The source of these data is ChEMBL document CHEMBL1156426, “Structure-based inhibitor design for an enzyme that binds different steroids: a potent inhibitor for human type 5 17beta-hydroxysteroid dehydrogenase” (J Biol Chem, 2007).

For test [1], the target named is T1, Aldo-keto reductase family 1 member C3 (Homo sapiens, UniProt P42330).
T1 sequence (P42330 whole entry): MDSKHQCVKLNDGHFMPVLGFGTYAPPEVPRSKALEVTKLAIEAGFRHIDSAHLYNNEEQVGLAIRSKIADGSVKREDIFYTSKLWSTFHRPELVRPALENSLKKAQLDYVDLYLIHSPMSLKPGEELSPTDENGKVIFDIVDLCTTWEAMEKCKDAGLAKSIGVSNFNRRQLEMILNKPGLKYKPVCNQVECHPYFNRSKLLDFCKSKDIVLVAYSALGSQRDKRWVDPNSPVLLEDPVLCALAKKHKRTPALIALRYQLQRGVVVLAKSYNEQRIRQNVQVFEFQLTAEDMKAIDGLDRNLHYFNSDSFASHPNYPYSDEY
As to the kind of experiment: Inhibition of human 17beta HSD5 in HEK cells. The test is classed as cell-based, HEK293.

The target of test [2] is T1, Aldo-keto reductase family 1 member C3. As to the kind of experiment: Inhibition of human 17beta HSD5 mediated conversion of testosterone to delta-4-androstene-3,17-dione.

In general, IC50 refers to the point on the concentration scale where inhibition reaches its midpoint. Lower therefore signals inhibition by little substance. As for `COCCOc1cc2c(cc1OC(N)=O)[C@H]1CC[C@@]3(C)[C@@H](CC[C@@]34CCC(C)(C)C(=O)O4)[C@@H]1CC2`, in test [1], the 50% inhibitory concentration (IC50) came to 9.5 nM.
For orientation: Ki means the equilibrium dissociation constant of an inhibitor or competing ligand from its target. A lower Ki goes with tighter binding. In test [1], `CC1(C)CC[C@@]2(CC[C@H]3[C@@H]4CCc5cc(C(N)=O)ccc5[C@H]4CC[C@@]32C)OC1=O` showed a concentration for half-maximal inhibition (IC50) of 3.2 nM. The Ki in test [2] worked out at 6.9 nM.
The compound `COCCOc1cc2c(cc1C#N)[C@H]1CC[C@@]3(C)[C@@H](CC[C@@]34CCC(C)(C)C(=O)O4)[C@@H]1CC2` [EM1396] had an IC50 in test [1] of 13 nM.
